These compounds were tested against T1, recombinant human LTA4 hydrolase (rhLTA4H) (Homo sapiens, UniProt P09960) (assay: Recombinant Human LTA4 Hydrolase Assay for LTA4 Hydrolase Inhibitor Activity). Details: average of results obtained; LTB4 quantified by enzyme-linked immunoassay.
T1 construct: made in house; host or cells: Spodoptera frugiperda (Sf-9) cells, baculovirus (pFastBac1)
T1 sequence (P09960 1-611): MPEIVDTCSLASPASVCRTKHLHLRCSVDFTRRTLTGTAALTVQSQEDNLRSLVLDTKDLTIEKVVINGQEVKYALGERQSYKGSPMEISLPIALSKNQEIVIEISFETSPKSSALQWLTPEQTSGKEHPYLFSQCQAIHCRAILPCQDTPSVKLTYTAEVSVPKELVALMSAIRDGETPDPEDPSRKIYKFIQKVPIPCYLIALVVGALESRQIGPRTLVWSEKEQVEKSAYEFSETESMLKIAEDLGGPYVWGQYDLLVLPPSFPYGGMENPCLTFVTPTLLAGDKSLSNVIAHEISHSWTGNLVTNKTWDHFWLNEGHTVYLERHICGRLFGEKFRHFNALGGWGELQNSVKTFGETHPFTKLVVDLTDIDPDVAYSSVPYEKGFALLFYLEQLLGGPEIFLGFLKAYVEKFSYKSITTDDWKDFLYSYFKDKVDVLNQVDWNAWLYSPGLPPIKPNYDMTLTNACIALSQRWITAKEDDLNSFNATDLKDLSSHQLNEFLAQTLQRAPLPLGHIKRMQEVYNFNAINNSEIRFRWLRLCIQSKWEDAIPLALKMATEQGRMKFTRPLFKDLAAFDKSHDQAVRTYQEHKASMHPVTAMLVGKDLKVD
Format: biochemical
Protocol: Biological Methods: Recombinant Human LTA4 Hydrolase Assay for LTA4 Hydrolase Inhibitor Activity
Compounds of the present invention were tested for LTA4 hydrolase inhibitor activity against recombinant human LTA4 hydrolase (rhLTA4H). Vectors were prepared and used to express rhLTA4H essentially as follows: LTA4 hydrolase encoding DNA was amplified by polymerase chain reaction (PCR) using a human placental cDNA library as a template. Oligonucleotide primers for the PCR reaction were based on the 5′-end, and the complement of the 3′-end, of the published nucleotide sequence for the coding region of the human LTA4 hydrolase gene (C. D. Funk et al., Proc. Natl. Acad. Sci. USA 1987, 84:6677-6681). The amplified 1.9 kb DNA fragment encoding LTA4 hydrolase was isolated and cloned into the pFastBac1 vector (Invitrogen). Recombinant baculovirus was generated as described by the manufacturer, and used to infect Spodoptera frugiperda (Sf-9) cells. Recombinant LTA4 hydrolase enzyme was purified from the infected Sf-9 cells essentially as described by J. K. Gierse et al. (Protein Expression and Purification 1993, 4:358-366). The purified enzyme solution was adjusted to contain 0.29 mg/mL LTA4 hydrolase, 50 mM Tris (pH 8.0), 150 mM NaCl, 5 mM dithiothreitol, 50% glycerol, and EDTA-free Complete protease inhibitor cocktail (Roche). The specific activity of the enzyme was about 3.8 μmol/min/mg.
LTA4 substrate was prepared from the methyl ester of LTA4 (Cayman Chemical) by treatment with 67 equiv of NaOH under nitrogen at rt for 40 min. The LTA4 substrate in its free acid form was kept frozen at −80° C. until needed. Each compound was diluted to different concentrations in assay buffer (0.1 M potassium phosphate (pH 7.4), 5 mg/mL fatty acid free BSA) containing 10% DMSO. A 25-uL aliquot of each compound dilution was incubated for 10 min at rt with an equal volume of assay buffer containing 36 ng of recombinant human LTA4H. The solution was then adjusted to 200 μL with assay buffer. LTA4 (free acid) was thawed and diluted in assay buffer to a concentration of 357 ng/mL, and 25 μL (9 ng) of LTA4 substrate was added to the reaction mixture (total volume=225 μL) at time zero. Each reaction was carried out at rt for 10 min. The reaction was stopped by diluting 10 μL of the reaction mixture with 200 μL of assay buffer. LTB4 was quantified in the diluted sample by a commercially available enzyme-linked immunoassay (Cayman Chemical Co.), as recommended by the manufacturer. Positive controls, under essentially identical conditions but without addition of an inhibitor compound, and negative controls, containing all assay components except enzyme, were routinely run in each experiment. […]
Results for the compounds tested in this assay are presented in Table 1 as an average of results obtained.

Ki [µM] | SMILES
0.232 | CC(=O)N1CC2CCC(C1)N2CCc1ccc(Oc2nc3ccc(Cl)cc3s2)cc1 [Example 250, meso-1-(8-{2-[4-(6-Chloro-benzothiazol-2-yloxy)-phenyl]-ethyl}-3,8-diaza-bicyclo[3.2.1]oct-3-yl)-ethanone]
0.093 | NC(=O)N1C[C@@H]2C[C@H]1CN2Cc1ccc(Cc2nc3ccccc3s2)cc1 [Example 35, (S,S)-5-(4-Benzothiazol-2-ylmethyl-benzyl)-2,5-diaza-bicyclo[2.2.1]heptane-2-carboxylic acid amide]
0.072 | CS(=O)(=O)N1C[C@@H]2C[C@H]1CN2CCc1ccc(Oc2nc3cccc(F)c3s2)cc1 [Example 232, (S,S)-7-Fluoro-2-{4-[2-(5-methanesulfonyl-2,5-diaza-bicyclo[2.2.1]hept-2-yl)-ethyl]-phenoxy}-benzothiazole]
0.064 | CS(=O)(=O)N1C[C@H]2C[C@@H]1CN2CCOc1ccc(Oc2nc3ccccc3s2)cc1 [Example 223, (R,R)-2-{4-[2-(5-Methanesulfonyl-2,5-diaza-bicyclo[2.2.1]hept-2-yl)-ethoxy]-phenoxy}-benzothiazole]
0.085 | CC(=O)N1[C@@H]2CC[C@H]1C[C@@H](NCCc1ccc(Oc3nc4cc(F)ccc4s3)cc1)C2 [Example 197, meso-endo-1-(3-{2-[4-(5-Fluoro-benzothiazol-2-yloxy)-phenyl]-ethylamino}-8-aza-bicyclo[3.2.1]oct-8-yl)-ethanone]
0.053 | NC(=O)N1CC2CCN(Cc3ccc(Oc4nc5ccccc5s4)cc3)CC2C1 (single isomer, unassigned; (+)) [Example 142A, (+)-5-[4-(Benzothiazol-2-yloxy)-benzyl]-octahydro-pyrrolo[3,4-c]pyridine-2-carboxylic acid amide]
0.026 | NC(=O)N[C@@H]1C[C@H]2CC[C@@H](C1)N2Cc1ccc(Oc2nc3cc(F)ccc3s2)cc1 [Example 260, meso-exo-{8-[4-(5-Fluoro-benzothiazol-2-yloxy)-benzyl]-8-aza-bicylclo[3.2.1]oct-3-yl}-urea]
0.1 | O=C(CC(F)(F)F)N1CC2CN(Cc3ccc(Oc4nc5ccccc5s4)cc3)CC2C1 (centres unmarked) [Example 113, 1-{5-[4-(Benzothiazol-2-yloxy)-benzyl]-hexahydro-pyrrolo[3,4-c]pyrrol-2-yl}-3,3,3-trifluoro-propan-1-one]
0.1 | Cc1ccc2nc(Oc3ccc(CCN4[C@@H]5CC[C@H]4C[C@@H](NC(N)=O)C5)cc3)sc2c1 [Example 261, meso-endo-(8-{2-[4-(6-Methyl-benzothiazol-2-yloxy)-phenyl]-ethyl}-8-aza-bicyclo[3.2.1]oct-3-yl)-urea]
0.196 | CS(=O)(=O)N1CC2CCC(C1)N2Cc1ccc(Oc2nc3cccc(Cl)c3s2)cc1 [Example 174, meso-7-Chloro-2-[4-(3-methanesulfonyl-3,8-diaza-bicyclo[3.2.1]oct-8-ylmethyl)-phenoxy]-benzothiazole]
1.1 | CS(=O)(=O)N1C[C@@H]2C[C@H]1CN2Cc1ccc(Oc2nc3cc(Cl)ccc3s2)cc1 [Example 206, (S,S)-5-Chloro-2-[4-(5-methanesulfonyl-2,5-diaza-bicyclo[2.2.1]hept-2-ylmethyl)-phenoxy]-benzothiazole]
0.001 | CC(=O)N[C@H]1C[C@H]2CC[C@@H](C1)N2Cc1ccc(Oc2nc3c(F)cccc3s2)cc1F [Example 160, meso-endo-N-{8-[2-Fluoro-4-(4-fluoro-benzothiazol-2-yloxy)-benzyl]-8-aza-bicyclo[3.2.1]oct-3-yl}-acetamide]
0.09 | NC(=O)N1[C@@H]2CC[C@H]1C[C@@H](NCc1ccc(Oc3nc4cccc(F)c4s3)cc1)C2 [Example 226, meso-endo-3-[4-(7-Fluoro-benzothiazol-2-yloxy)-benzylamino]-8-aza-bicyclo[3.2.1]octane-8-carboxylic acid amide]
0.017 | CS(=O)(=O)N[C@H]1C[C@H]2CC[C@@H](C1)N2CCc1ccc(Oc2nc3ccc(F)cc3s2)cc1 [Example 277, meso-endo-N-(8-{2-[4-(6-Fluoro-benzothiazol-2-yloxy)-phenyl]-ethyl}-8-aza-bicyclo[3.2.1]oct-3-yl)-methanesulfonamide]
0.163 | CC(=O)N1C[C@@H]2C[C@H]1CN2Cc1ccc(Cc2nc3ccccc3s2)cc1 [Example 4, (S,S)-1-[5-(4-Benzothiazol-2-ylmethyl-benzyl)-2,5-diaza-bicyclo[2.2.1]hept-2-yl]-ethanone]
0.49 | NC(=O)N1[C@@H]2CC[C@H]1C[C@@H](NCCOc1ccc(Oc3nc4cc(Cl)ccc4s3)cc1)C2 [Example 257, meso-endo-3-{2-[4-(5-Chloro-benzothiazol-2-yloxy)-henoxy]-ethylamino}-8-aza-bicyclo[3.2.1]octane-8-carboxylic acid amide]
0.011 | CC(=O)N1C[C@H]2C[C@@H]1CN2CCOc1ccc(Oc2nc3cccc(F)c3s2)cc1 [Example 249, (R,R)-1-(5-{2-[4-(7-Fluoro-benzothiazol-2-yloxy)-phenoxy]-ethyl}-2,5-diaza-bicyclo[2.2.1]hept-2-yl)-ethanone]
0.044 | NC(=O)N[C@H]1C[C@H]2CC[C@@H](C1)N2Cc1ccc(Cc2nc3ccccc3o2)cc1 [Example 37, meso-endo-[8-(4-Benzooxazol-2-ylmethyl-benzyl)-8-aza-bicyclo[3.2.1]oct-3-yl]-urea]
2.6 | CC(=O)N1C[C@@H]2C[C@H]1CN2CCc1ccc(Oc2nc3c(Cl)cccc3s2)cc1 [Example 253, (S,S)-1-(5-{2-[4-(4-Chloro-benzothiazol-2-yloxy)-phenyl]-ethyl}-2,5-diaza-bicyclo[2.2.1]hept-2-yl)-ethanone]
0.51 | CC(=O)N[C@@H]1C[C@H]2CC[C@@H](C1)N2CCOc1ccc(Oc2nc3c(Cl)cccc3s2)cc1 [Example 240, meso-exo-N-(8-{2-[4-(4-Chloro-benzothiazol-2-yloxy)-phenoxy]-ethyl}-8-aza-bicyclo[3.2.1]oct-3-yl)-acetamide]
0.007 | CC(=O)N1C[C@H]2C[C@@H]1CN2Cc1ccc(Oc2nc3ccccc3s2)cc1 [Example 3, (R,R)-1-{5-[4-(Benzothiazol-2-yloxy)-benzyl]-2,5-diaza-bicyclo[2.2.1]hept-2-yl}-ethanone]
0.005 | NC(=O)N1CC2CN(CCc3ccc(Oc4nc5c(F)cccc5s4)cc3)CC2C1 (centres unmarked) [Example 147, 5-{2-[4-(4-Fluoro-benzothiazol-2-yloxy)-phenyl]-ethyl}-hexahydro-pyrrolo[3,4-c]pyrrole-2-carboxylic acid amide]
0.973 | Cc1ccc2nc(Oc3ccc(CCN[C@@H]4C[C@H]5CC[C@@H](C4)N5C(N)=O)cc3)sc2c1 [Example 173, meso-exo-3-{2-[4-(6-Methyl-benzothiazol-2-yloxy)-phenyl]-ethylamino}-8-aza-bicyclo[3.2.1]octane-8-carboxylic acid amide]
0.011 | O=C(N1C[C@@H]2C[C@H]1CN2CCc1ccc(Oc2nc3ccccc3s2)cc1)C1(O)CC1 [Example 16]
1.74 | NC(=O)N[C@H]1C[C@H]2CC[C@@H](C1)N2CCOc1ccc(Oc2nc3cccc(Cl)c3s2)cc1 [Example 278, meso-endo-(8-{2-[4-(7-Chloro-benzothiazol-2-yloxy)-phenoxy]-ethyl}-8-aza-bicyclo[3.2.1]oct-3-yl)-urea]
0.006 | CC(=O)N1C[C@@H]2C[C@H]1CN2Cc1ccc(Oc2nc3c(F)cccc3s2)cc1 [Example 207, (S,S)-1-{5-[4-(4-Fluoro-benzothiazol-2-yloxy)-benzyl]-2,5-diaza-bicyclo[2.2.1]hept-2-yl}-ethanone]
